# “Also recorded” adds a separate entry of the source.
# Test system: Benz-I (protease specific for basic amino acid residue)
# Assay: Cleavage of peptides by Benz-I, HPLC and amino acid composition of fragments
# Type: biochemical, Kluyveromyces lactis IFO 1903
# Description: The composition of the employed reaction mixture and the examination conditions were as follows. Namely, 500 μl of a reaction mixture containing 25 μmol of tris hydrochloride buffer solution (pH 7.0), 0.25 μmol of CaCl2, 5 mg of Lubrol PX, 100 μg of NaN3, each peptide at various concentrations and Benz-I at various concentrations was allowed to react at 30° C. for 20 hours.
# 50-μl portions of the reaction mixture were sampled after the reaction for 0 and 20 hours and 50 μl of a reaction terminating agent comprising 0.2% of TFA and 10 mM of EDTA was added thereto. The resulting mixture was analyzed by HPLC. The HPLC was conducted by CH3 CN gradient elution with the use of an Ultron NC18 column (0.45×15 cm) or a TSK gel ODS-80TM column (0.46×25 cm) in the presence of 0.1% of TFA.
# The residual reaction mixture was chromatographed under the same conditions as those employed in the above analysis and main peaks were fractionated. The fractionated eluate was evaporated to dryness on a centrifugal evaporator and decomposed with hydrochloric acid at 110° C. for 24 hours. Then each fragment was assumed from the amino acid composition.
substance,measurement,value
Tyr-Gly-Gly-Phe-Leu-Arg-Arg-Ile-Arg-Pro-Lys-Leu-Lys (YGGFLRRIRPKLK; printed: Tyr-Gly-Gly-Phe-Leu-Arg-Arg-Ile-Arg-Pro-Lys-Leu-Lys) [Dynorphin A (1-13)],Fragment obtained (assumed from amino acid composition) after reaction with Benz-I,Ile-Arg-Pro-Lys-Leu-Lys; also recorded: Try-Gly-Gly-Phe-Leu-Arg-Arg

# Reference: patent US5053333A, “Protease” (M & D Research Co., Ltd., priority 1988, dated 1991)
